A value given as a limit tells only on which side of the number the result lay.

The text below walks through data of patent publication US12624018B1, “Inhibitors of RIPK2 and medical uses thereof” (Odyssey Therapeutics, Inc., priority 2022, dated 2026).

The target of this assay is T1, RIPK2 enzyme (Homo sapiens, UniProt O43353).
T1 construct: purchased Carna 09-128
T1 sequence (O43353 1-299 limits assumed): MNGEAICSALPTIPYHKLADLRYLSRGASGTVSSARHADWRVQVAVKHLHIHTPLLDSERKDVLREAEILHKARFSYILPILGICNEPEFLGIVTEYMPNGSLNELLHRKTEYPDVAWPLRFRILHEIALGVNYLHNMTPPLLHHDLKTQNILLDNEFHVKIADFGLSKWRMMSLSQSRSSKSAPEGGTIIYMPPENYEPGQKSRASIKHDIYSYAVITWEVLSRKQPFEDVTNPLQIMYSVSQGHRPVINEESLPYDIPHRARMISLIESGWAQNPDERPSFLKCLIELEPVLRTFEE
Put plainly: RIPK2 inhibition (ADP-Glo Kinase Assay). In kind it is biochemical. Particulars: RIPK2 5 nM, ATP 150 μM, MBP substrate, read-out: RIPK2 IC50. An outline of the steps: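 Swine MBP substrate; compound and 5 nM RIPK2 first mixed for 30 min at room temperature; buffer pH 7.5 HEPES 50 mM with 10 mM MgCl2, 2 mM DTT, 1 mM EGTA, Brij-35, BSA.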
A general note: ADP-Glo first removes unused ATP, then detects ADP through luciferase.
A word on the IC50: it is the concentration that gives 50% inhibition. Take `Cc1cc(CC(=O)Nc2cnn(C(C)(C)C)c2)c(F)cc1Oc1ccnc2ccc(C(C)(C)O)cc12` [Compound 433, N-(1-(tert-butyl)-1H-pyrazol-4-yl)-2-(2-fluoro-4-((6-(2-hydroxypropan-2-yl)quinolin-4-yl)oxy)-5-methylphenyl)acetamide]: the IC50 is less than 2.5 nM.
The same measure for `Cc1cc(CC(=O)Nc2cnn(C(C)(C)C)c2)c(F)cc1Oc1ncnc2ccc(C(N)=O)cc12` [Compound 434, 4-(4-(2-((1-(tert-butyl)-1H-pyrazol-4-yl)amino)-2-oxoethyl)-5-fluoro-2-methylphenoxy)quinazoline-6-carboxamide]: 3 nM.
Consider `CNC(=O)c1cc2c(Oc3cc(F)c(CC(=O)Nc4cnn(C(C)(C)C)c4)cc3C)ccnc2cc1F` [Compound 435, 4-(4-(2-((1-(tert-butyl)-1H-pyrazol-4-yl)amino)-2-oxoethyl)-5-fluoro-2-methylphenoxy)-7-fluoro-N-methylquinoline-6-carboxamide], for which the IC50 is less than 2.5 nM.
The same measure for `COc1cc2nccc(Oc3cc(F)c(CC(=O)Nc4cnn(C(C)(C)C)c4)cc3C)c2cc1C(N)=O` [Compound 436, 4-(4-(2-((1-(tert-butyl)-1H-pyrazol-4-yl)amino)-2-oxoethyl)-5-fluoro-2-methylphenoxy)-7-methoxyquinoline-6-carboxamide]: less than 2.5 nM.
The same measure for `CNC(=O)c1cc2c(Oc3cc(F)c(CC(=O)Nc4cnn(C(C)(C)C)c4)cc3C)ccnc2cc1OC` [Compound 437, 4-(4-(2-((1-(tert-butyl)-1H-pyrazol-4-yl)amino)-2-oxoethyl)-5-fluoro-2-methylphenoxy)-7-methoxy-N-methylquinoline-6-carboxamide]: less than 2.5 nM; for `Cc1cc(CC(=O)Nc2cnn(C(C)(C)C)c2)c(F)cc1Oc1ncnc2cc(F)c(C(N)=O)cc12` [Compound 438, 4-(4-(2-((1-(tert-butyl)-1H-pyrazol-4-yl)amino)-2-oxoethyl)-5-fluoro-2-methylphenoxy)-7-fluoroquinazoline-6-carboxamide]: 3.5 nM.
On to `COc1cc2ncnc(Oc3cc(F)c(CC(=O)Nc4cnn(C(C)(C)C)c4)cc3C)c2cc1C(N)=O` [Compound 439, 4-(4-(2-((1-(tert-butyl)-1H-pyrazol-4-yl)amino)-2-oxoethyl)-5-fluoro-2-methylphenoxy)-7-methoxyquinazoline-6-carboxamide], for which the IC50 was less than 2.5 nM.
The result for `CNC(=O)c1cc2c(Oc3cc(F)c(CC(=O)Nc4cnn(C(C)(C)C)c4)cc3C)ncnc2cc1OC` [Compound 440, 4-(4-(2-((1-(tert-butyl)-1H-pyrazol-4-yl)amino)-2-oxoethyl)-5-fluoro-2-methylphenoxy)-7-methoxy-N-methylquinazoline-6-carboxamide] reads less than 2.5 nM; that for `Cc1c(Oc2ccnc3ccc(C(O)CO)cc23)ccc(CC(=O)Nc2cnn(C(C)(C)C)c2)c1F` (stereo not shown) [Compound 444, N-(1-(tert-butyl)-1H-pyrazol-4-yl)-2-(4-((6-(1,2-dihydroxyethyl)quinolin-4-yl)oxy)-2-fluoro-3-methylphenyl)acetamide], less than 2.5 nM.
On to `Cc1cc(CC(=O)Nc2cnn(C(C)(C)C)c2)cc(C)c1Oc1ccnc2ccc(S(C)(=O)=O)cc12` [Compound 445, N-(1-(tert-butyl)-1H-pyrazol-4-yl)-2-(3,5-dimethyl-4-((6-(methylsulfonyl)quinolin-4-yl)oxy)phenyl)acetamide], for which the IC50 is less than 2.5 nM.
The same measure for `Cc1cc(Oc2ccnc3ccc(S(C)(=O)=O)cc23)c(C)cc1CC(=O)Nc1cnn(C(C)(C)C)c1` [Compound 446, N-(1-(tert-butyl)-1H-pyrazol-4-yl)-2-(2,5-dimethyl-4-((6-(methylsulfonyl)quinolin-4-yl)oxy)phenyl)acetamide]: 21.4 nM.
The result for `Cc1cc(CC(=O)Nc2cnn(C(C)(C)C)c2)cc(F)c1Oc1ncnc2ccc(C(N)=O)cc12` [Compound 447, 4-(4-(2-((1-(tert-butyl)-1H-pyrazol-4-yl)amino)-2-oxoethyl)-2-fluoro-6-methylphenoxy)quinazoline-6-carboxamide] reads less than 2.5 nM.
The same measure for `COC1CN(C(=O)c2ccc3nccc(Oc4cc(F)c(CC(=O)Nc5cnn(C(C)(C)C)c5)cc4C)c3c2)C1` [Compound 448, N-(1-(tert-butyl)-1H-pyrazol-4-yl)-2-(2-fluoro-4-((6-(3-methoxyazetidine-1-carbonyl)quinolin-4-yl)oxy)-5-methylphenyl)acetamide]: less than 2.5 nM.
As to `Cc1cc(CC(=O)Nc2cnn(C(C)(C)C)c2)c(F)cc1Oc1ccnc2ccc(C(=O)N3CCC(N)C3)cc12` (stereo not shown) [Compound 449, 2-(4-((6-(3-aminopyrrolidine-1-carbonyl)quinolin-4-yl)oxy)-2-fluoro-5-methylphenyl)-N-(1-(tert-butyl)-1H-pyrazol-4-yl)acetamide], the IC50 was less than 2.5 nM.
The result for `Cc1cc(CC(=O)Nc2cnn(C(C)(C)C)c2)c(F)cc1Oc1ccnc2ccc(C(=O)N3[C@H](C)CCC[C@@H]3C)cc12` [Compound 450, N-(1-(tert-butyl)-1H-pyrazol-4-yl)-2-(4-((6-((2S,6R)-2,6-dimethylpiperidine-1-carbonyl)quinolin-4-yl)oxy)-2-fluoro-5-methylphenyl)acetamide] reads less than 2.5 nM.
The same measure for `Cc1cc(CC(=O)Nc2cnn(C(C)(C)C)c2)c(F)cc1Oc1ccnc2ccc(C(=O)N3[C@H](C)COC[C@@H]3C)cc12` [Compound 451, N-(1-(tert-butyl)-1H-pyrazol-4-yl)-2-(4-((6-((3S,5R)-3,5-dimethylmorpholine-4-carbonyl)quinolin-4-yl)oxy)-2-fluoro-5-methylphenyl)acetamide]: less than 2.5 nM.
The result for `Cc1cc(CC(=O)Nc2cnn(C(C)(C)C)c2)c(F)cc1Oc1ccnc2ccc(C(=O)N3C[C@H]4C[C@@H]3CO4)cc12` [Compound 452, 2-(4-((6-((1R,4R)-2-oxa-5-azabicyclo[2.2.1]heptane-5-carbonyl)quinolin-4-yl)oxy)-2-fluoro-5-methylphenyl)-N-(1-(tert-butyl)-1H-pyrazol-4-yl)acetamide] reads less than 2.5 nM.
Turning to `Cc1cc(CC(=O)Nc2cnn(C(C)(C)C)c2)c(F)cc1Oc1ccnc2ccc(C(=O)N3C[C@H]4C[C@@H]3CN4)cc12` [Compound 453, 2-(4-((6-((1R,4R)-2,5-diazabicyclo[2.2.1]heptane-2-carbonyl)quinolin-4-yl)oxy)-2-fluoro-5-methylphenyl)-N-(1-(tert-butyl)-1H-pyrazol-4-yl)acetamide], the IC50 is less than 2.5 nM.
The result for `Cc1cc(CC(=O)Nc2cnn(C(C)(C)C)c2)c(F)cc1Oc1ccnc2ccc(C(=O)N3C[C@@H]4C[C@H]3CO4)cc12` [Compound 454, 2-(4-((6-((1S,4S)-2-oxa-5-azabicyclo[2.2.1]heptane-5-carbonyl)quinolin-4-yl)oxy)-2-fluoro-5-methylphenyl)-N-(1-(tert-butyl)-1H-pyrazol-4-yl)acetamide] reads less than 2.5 nM; that for `Cc1cc(CC(=O)Nc2cnn(C(C)(C)C)c2)c(F)cc1Oc1ccnc2ccc(C(=O)NC(C)C)cc12` [Compound 455, 4-(4-(2-((1-(tert-butyl)-1H-pyrazol-4-yl)amino)-2-oxoethyl)-5-fluoro-2-methylphenoxy)-N-isopropylquinoline-6-carboxamide], less than 2.5 nM.
The result for `Cc1cc(CC(=O)Nc2cnn(C(C)(C)C)c2)c(F)cc1Oc1ccnc2ccc(C(=O)NC(C)(C)C)cc12` [Compound 456, N-(tert-butyl)-4-(4-(2-((1-(tert-butyl)-1H-pyrazol-4-yl)amino)-2-oxoethyl)-5-fluoro-2-methylphenoxy)quinoline-6-carboxamide] reads less than 2.5 nM; that for `Cc1cc(CC(=O)Nc2cnn(C(C)(C)C)c2)c(F)cc1Oc1ccnc2ccc(C(=O)NC3CC3)cc12` [Compound 457, 4-(4-(2-((1-(tert-butyl)-1H-pyrazol-4-yl)amino)-2-oxoethyl)-5-fluoro-2-methylphenoxy)-N-cyclopropylquinoline-6-carboxamide], less than 2.5 nM.
The same measure for `Cc1cc(CC(=O)Nc2cnn(C(C)(C)C)c2)c(F)cc1Oc1ccnc2ccc(C(=O)NC3(C)CC3)cc12` [Compound 458, 4-(4-(2-((1-(tert-butyl)-1H-pyrazol-4-yl)amino)-2-oxoethyl)-5-fluoro-2-methylphenoxy)-N-(1-methylcyclopropyl)quinoline-6-carboxamide]: less than 2.5 nM.
For the molecule `CSc1ccc2nccc(Oc3cc(F)c(CC(=O)Nc4cnn(C(C)(C)C)c4)cc3C)c2c1` [Compound 459, N-(1-(tert-butyl)-1H-pyrazol-4-yl)-2-(2-fluoro-5-methyl-4-((6-(methylthio)quinolin-4-yl)oxy)phenyl)acetamide], the IC50 was less than 2.5 nM.
The same measure for `Cc1cc(CC(=O)Nc2cnn(C(C)(C)C)c2)c(F)cc1Oc1ccnc2ccc(-c3nnccc3C)cc12` [Compound 460, N-(1-(tert-butyl)-1H-pyrazol-4-yl)-2-(2-fluoro-5-methyl-4-((6-(4-methylpyridazin-3-yl)quinolin-4-yl)oxy)phenyl)acetamide]: less than 2.5 nM.
